Measurements reported in patent US20260258035A1, “FIVE-MEMBERED AND SIX-MEMBERED NITROGEN-CONTAINING COMPOUND, AND INTERMEDIATE, PREPARATION METHOD AND USE THEREOF” (HANGZHOU SYNRX THERAPEUTICS BIOMEDICAL TECHNOLOGY CO., LTD., priority 2022, published 2026).
Like-named read-outs stand apart in the source and are kept apart here.

Tests used:
PARG = PARG (Homo sapiens, UniProt Q86W56); assay: Biochemical assay (PARG, TFMU-ADPr substrate)
HCC1806 = assay: Cell viability assay (CellTiter-Glo); format: cell-based, Human; settings: HCC1806, 7 days, CellTiter-Glo, read-out: IC50 (nM) in cell viability assay
[1] = 4 nM PARG, 66.2 uM TFMU-ADPr, 3 min at room temperature

Chain of PARG (Q86W56 whole entry): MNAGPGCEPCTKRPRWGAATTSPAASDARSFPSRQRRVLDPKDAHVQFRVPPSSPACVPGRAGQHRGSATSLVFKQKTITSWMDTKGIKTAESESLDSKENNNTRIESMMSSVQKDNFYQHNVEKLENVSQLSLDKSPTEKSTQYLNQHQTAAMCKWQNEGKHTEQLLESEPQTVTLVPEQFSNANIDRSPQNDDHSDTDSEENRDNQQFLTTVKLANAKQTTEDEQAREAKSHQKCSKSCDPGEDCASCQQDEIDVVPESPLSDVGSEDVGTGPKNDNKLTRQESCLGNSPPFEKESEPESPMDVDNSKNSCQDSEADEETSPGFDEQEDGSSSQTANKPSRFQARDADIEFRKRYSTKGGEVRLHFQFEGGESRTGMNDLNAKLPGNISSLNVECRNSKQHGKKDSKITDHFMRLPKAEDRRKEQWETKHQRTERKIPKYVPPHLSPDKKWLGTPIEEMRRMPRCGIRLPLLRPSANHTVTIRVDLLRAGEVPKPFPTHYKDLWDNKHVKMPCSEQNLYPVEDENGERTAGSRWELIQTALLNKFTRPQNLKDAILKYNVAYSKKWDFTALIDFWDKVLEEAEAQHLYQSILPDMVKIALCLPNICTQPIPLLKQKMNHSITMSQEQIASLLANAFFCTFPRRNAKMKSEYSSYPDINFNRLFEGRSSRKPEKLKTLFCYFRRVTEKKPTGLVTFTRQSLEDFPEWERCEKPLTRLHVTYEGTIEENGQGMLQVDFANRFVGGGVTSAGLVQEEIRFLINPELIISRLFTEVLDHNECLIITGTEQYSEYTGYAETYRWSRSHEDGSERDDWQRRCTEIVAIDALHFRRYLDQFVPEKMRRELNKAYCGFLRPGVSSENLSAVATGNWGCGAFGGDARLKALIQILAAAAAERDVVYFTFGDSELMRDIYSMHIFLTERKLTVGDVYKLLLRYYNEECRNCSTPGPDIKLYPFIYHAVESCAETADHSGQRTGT

| SMILES | IC50 (PARG; PARG, TFMU-ADPr substrate) [nM] | IC50 (HCC1806; Homo sapiens, HCC1806, 168 h) [nM] | IC50 (PARG; [1]) [nM] | IC50 (HCC1806) [nM] |
| --- | --- | --- | --- | --- |
| CC(C)C(=O)N1CCN(c2cc(S(=O)(=O)NC3CC3)cn3c(-c4nnc(C(F)F)s4)nc(Cl)c23)C[C@H]1C [Example 131, (R)-1-chloro-N-cyclopropyl-3-(5-(difluoromethyl)-1,3,4-thiadiazol-2-yl)-8-(4-isobutyryl-3-methylpiperazin-1-yl)imidazo[1,5-a]pyridine-6-sulfonamide] | 22.9 | 1680 | – | – |
| COCC1CN(c2cc(S(=O)(=O)NC3(C)COC3)cn3c(-c4nnc(C(F)(F)F)s4)nc(Cl)c23)CCN1 (stereo not shown) [Example 135, 1-chloro-8-(3-(methoxymethyl)piperazin-1-yl)-N-(3-methyloxetan-3-yl)-3-(5-(trifluoromethyl)-1,3,4-thiadiazol-2-yl)imidazo[1,5-a]pyridine-6-sulfonamide] | 12.6 | 213 | – | – |
| COCC1CN(c2cc(S(=O)(=O)NC3(CF)COC3)cn3c(-c4nnc(C(F)F)s4)nc(Cl)c23)CCN1 (stereo not shown) [Example 136, 1-chloro-3-(5-(difluoromethyl)-1,3,4-thiadiazol-2-yl)-N-(3-(fluoromethyl)oxetan-3-yl)-8-(3-(methoxymethyl)piperazin-1-yl)imidazo[1,5-a]pyridine-6-sulfonamide] | 7.94 | 199 | – | – |
| CC(C)OCC1CN(c2cc(S(=O)(=O)NC3(C)COC3)cn3c(-c4nnc(C(F)F)s4)nc(Cl)c23)CCN1 (stereo not shown) [Example 137, 1-chloro-3-(5-(difluoromethyl)-1,3,4-thiadiazol-2-yl)-8-(3-(isopropoxymethyl)piperazin-1-yl)-N-(3-methyloxetan-3-yl)imidazo[1,5-a]pyridine-6-sulfonamide] | 15.8 | 332 | – | – |
| C[C@@H]1CN(c2cc(S(=O)(=O)NC3(C#N)CC3)cn3c(-c4nnc(C(F)F)s4)ncc23)CCN1C(CO)C(F)(F)F (stereo partly drawn) [Example 144, N-(1-cyanocyclopropyl)-3-(5-(difluoromethyl)-1,3,4-thiadiazol-2-yl)-8-((3R)-3-methyl-4-(1,1,1-trifluoro-3-hydroxypropan-2-yl)piperazin-1-yl)imidazo[1,5-a]pyridine-6-sulfonamide] | 263 | 5000 to 30000 | 100 to 500 | 7020 |
| [2H]c1nc(-c2nnc(C(F)F)s2)n2cc(S(=O)(=O)NC3(C)COC3)cc(N3CCNC(COC)C3)c12 (stereo not shown) [Example 158, 3-(5-(difluoromethyl)-1,3,4-thiadiazol-2-yl)-8-(3-(methoxymethyl)piperazin-1-yl)-N-(3-methyloxetan-3-yl)imidazo[1,5-a]pyridine-6-sulfonamide-1-d] | 15.8 | 1090 | – | – |
| [2H]c1nc(-c2nnc(C(F)F)s2)n2cc(S(=O)(=O)NC3(C)COC3)cc(N3C[C@H](C)N[C@@H](C)C3)c12 [Example 160, 3-(5-(difluoromethyl)-1,3,4-thiadiazol-2-yl)-8-((3S,5S)-3,5-dimethylpiperazin-1-yl)-N-(3-methyloxetan-3-yl)imidazo[1,5-a]pyridine-6-sulfonamide-1-d] | 0.23 | 23.5 | – | – |
| CC(C)C(=O)N1CCN(c2nc(S(=O)(=O)NC3(C)CC3)cn3c(-c4nnc(C(F)F)s4)ncc23)CC1 [Example 162, 3-(5-(difluoromethyl)-1,3,4-thiadiazol-2-yl)-8-(4-isobutyrylpiperazin-1-yl)-N-(1-methylcyclopropyl)imidazo[1,5-a]pyrazine-6-sulfonamide] | 525 | 5000 to 30000 | 500 to 1000 | 6070 |
| CC(C)C(=O)N1CCN(c2cc(S(=O)(=O)NC3(C)CC3)cn3c(-c4nnc(C(F)(F)F)s4)nc(C#N)c23)CC1 [Example 164, 1-cyano-8-(4-isobutyrylpiperazin-1-yl)-N-(1-methylcyclopropyl)-3-(5-(trifluoromethyl)-1,3,4-thiadiazol-2-yl)imidazo[1,5-a]pyridine-6-sulfonamide] | 3.31 | 100 | – | – |
| CC(C)C(=O)N1CCN(c2cc(S(=O)(=O)NC3(C)CC3)cn3c(-c4nnc(C(F)F)s4)nc(C#N)c23)C[C@H]1C [Example 165, (R)-1-cyano-3-(5-(difluoromethyl)-1,3,4-thiadiazol-2-yl)-8-(4-isobutyryl-3-methylpiperazin-1-yl)-N-(1-methylcyclopropyl)imidazo[1,5-a]pyridine-6-sulfonamide] | 20 | 1000 | – | – |
| CC(C)C(=O)N1CCN(c2cc(S(=O)(=O)NC3CC3)cn3c(-c4nnc(C(F)(F)F)s4)nc(C#N)c23)CC1 [Example 166, 1-cyano-N-cyclopropyl-8-(4-isobutyrylpiperazin-1-yl)-3-(5-(trifluoromethyl)-1,3,4-thiadiazol-2-yl)imidazo[1,5-a]pyridine-6-sulfonamide] | 13.2 | 882 | – | – |
| Cc1nc(-c2nnc(C(F)F)s2)n2cc(S(=O)(=O)NC3(C#N)CC3)cc(N3CCN(C(=O)C(C)C)CC3)c12 [Example 170, N-(1-cyanocyclopropyl)-3-(5-(difluoromethyl)-1,3,4-thiadiazol-2-yl)-8-(4-isobutyrylpiperazin-1-yl)-1-methylimidazo[1,5-a]pyridine-6-sulfonamide] | 1.66 | 122 | – | – |
| Cc1nc(-c2nnc(C(F)(F)F)s2)n2cc(S(=O)(=O)NC3(C)CC3)cc(N3CCN(C(=O)[C@H]4CCN4C)CC3)c12 [Example 171, (R)-1-methyl-8-(4-(1-methylazetidine-2-carbonyl)piperazin-1-yl)-N-(1-methylcyclopropyl)-3-(5-(trifluoromethyl)-1,3,4-thiadiazol-2-yl)imidazo[1,5-a]pyridine-6-sulfonamide] | 0.71 | 32 | – | – |
| Cc1nc(-c2nnc(C(F)(F)F)s2)n2cc(S(=O)(=O)NC3(C#N)CC3)cc(N3CCN(C(=O)C4CCO4)CC3)c12 (stereo not shown) [Example 172, N-(1-cyanocyclopropyl)-1-methyl-8-(4-(oxetane-2-carbonyl)piperazin-1-yl)-3-(5-(trifluoromethyl)-1,3,4-thiadiazol-2-yl)imidazo[1,5-a]pyridine-6-sulfonamide] | 10 | 308 | – | – |

The remaining lines, values ahead:

| IC50 (PARG; PARG, TFMU-ADPr substrate) [nM] | IC50 (HCC1806; Homo sapiens, HCC1806, 168 h) [nM] | IC50 (PARG; [1]) [nM] | IC50 (HCC1806) [nM] | SMILES |
| --- | --- | --- | --- | --- |
| 34.1 | 5000 to 30000 | < 100 | 9940 | N#CC1(NS(=O)(=O)c2cc(N3CCN(C4COC4)CC3)c3cnc(-c4nnc(C(F)F)s4)n3c2)CC1 [Example 147, N-(1-cyanocyclopropyl)-3-(5-(difluoromethyl)-1,3,4-thiadiazol-2-yl)-8-(4-(oxetan-3-yl)piperazin-1-yl)imidazo[1,5-a]pyridine-6-sulfonamide] |
| 33.1 | 1020 | – | – | [2H]c1nc(-c2nnc(C(F)(F)F)s2)n2cc(S(=O)(=O)NC3(C#N)CC3)cc(N3CCN(C(=O)C4CC4)CC3)c12 [Example 157, N-(1-cyanocyclopropyl)-8-(4-(cyclopropanecarbonyl)piperazin-1-yl)-3-(5-(trifluoromethyl)-1,3,4-thiadiazol-2-yl)imidazo[1,5-a]pyridine-6-sulfonamide-1-d] |
| 0.15 | 14 | – | – | [2H]C([2H])([2H])OC1(C(=O)N2CCN(c3cc(S(=O)(=O)NC4(C)CC4)cn4c(-c5nnc(C(F)(F)F)s5)ncc34)CC2)CC1 [Example 168, 8-(4-(1-(methoxy-d3)cyclopropane-1-carbonyl)piperazin-1-yl)-N-(1-methylcyclopropyl)-3-(5-(trifluoromethyl)-1,3,4-thiadiazol-2-yl)imidazo[1,5-a]pyridine-6-sulfonamide] |
| 1.82 | 27 | – | – | Cc1nc(-c2nnc(C(F)F)s2)n2cc(S(=O)(=O)NC3(C)COC3)cc(N3CCC4(CC3)COC4)c12 [Example 169, 3-(5-(difluoromethyl)-1,3,4-thiadiazol-2-yl)-1-methyl-N-(3-methyloxetan-3-yl)-8-(2-oxa-7-azaspiro[3.5]nonan-7-yl)imidazo[1,5-a]pyridine-6-sulfonamide] |
| 50.1 | 400 | – | – | CC(=O)N1CCN(c2cc(S(=O)(=O)NC3(C#N)CC3)cn3c(-c4nnc(C(F)(F)F)s4)ncc23)CC1 [Example 173, 8-(4-acetylpiperazin-1-yl)-N-(1-cyanocyclopropyl)-3-(5-(trifluoromethyl)-1,3,4-thiadiazol-2-yl)imidazo[1,5-a]pyridine-6-sulfonamide] |
| 5.01 | 856 | – | – | CC(C)C(=O)N1CCN(c2cc(S(=O)(=O)NC3(C)COC3)cn3c(-c4nnc(C(F)(F)F)s4)ncc23)C[C@H]1C [Example 174, (R)-8-(4-isobutyryl-3-methylpiperazin-1-yl)-N-(3-methyloxetan-3-yl)-3-(5-(trifluoromethyl)-1,3,4-thiadiazol-2-yl)imidazo[1,5-a]pyridine-6-sulfonamide] |
| 4.37 | 1340 | – | – | O=S(=O)(NC1(CF)COC1)c1cc(N2CCC3(CC2)COC3)c2cnc(-c3nnc(C(F)(F)F)s3)n2c1 [Example 176, N-(3-(fluoromethyl)oxetan-3-yl)-8-(2-oxa-7-azaspiro[3.5]nonan-7-yl)-3-(5-(trifluoromethyl)-1,3,4-thiadiazol-2-yl)imidazo[1,5-a]pyridine-6-sulfonamide] |
| 0.54 | 15 | – | – | COC1(C(=O)N2CCN(c3cc(S(=O)(=O)NC4(C)COC4)cn4c(-c5nnc(C(F)(F)F)s5)ncc34)CC2)CC1 [Example 177, 8-(4-(1-methoxycyclopropane-1-carbonyl)piperazin-1-yl)-N-(3-methyloxetan-3-yl)-3-(5-(trifluoromethyl)-1,3,4-thiadiazol-2-yl)imidazo[1,5-a]pyridine-6-sulfonamide] |
| 1.18 | 945 | – | – | CC1(NS(=O)(=O)c2cc(N3CCN[C@@H](CO)C3)c3cnc(-c4nnc(C(F)F)s4)n3c2)COC1 [Example 178, (R)-3-(5-(difluoromethyl)-1,3,4-thiadiazol-2-yl)-8-(3-(hydroxymethyl)piperazin-1-yl)-N-(3-methyloxetan-3-yl)imidazo[1,5-a]pyridine-6-sulfonamide] |
